# Assay results taken from patent US10213470B2, “Method for treating spinocerebellar ataxias” (NATIONAL TAIWAN NORMAL UNIVERSITY, priority 2015, dated 2019).
# Legend:
# [1] = system: ATXN3/Q75 aggregation in 293 ATXN3/Q75-GFP cells; assay: ATXN3/Q75 aggregation analysis by high-content analysis in 293 ATXN3/Q75-GFP cells; type: cell-based, Human; details: at 100 nM; 8 h pre-treatment, then doxycycline and oxaliplatin 6 days
# Method: (§1) Human 293 ATXN3/Q75-GFP cells were cultured in Dulbecco's modified Eagle's medium (DMEM) containing 10% fetal bovine serum (FBS), 5 μg/mL blasticidin, and 100 μg/mL hygromycin (InvivoGen). Human neuroblastoma SH-SY5Y cells (ATCC No. CRL-2266) were cultured in DMEM F12 supplemented with 10% FBS. Mouse RAW 264.7 macrophages and BV-2 microglia were cultured in DMEM containing 10% FBS. Cells were all cultured in a 37° C. incubator containing 5% CO2.
# 293 ATXN3/Q75-GFP cells were cultured in 96-well (2×10^4/well) plates for 24 h and treated with different concentrations of suberoylanilide hydroxamic acid (SAHA, Cayman Chemical) (100 nM), Paeonia lactiflora, Glycyrrhiza uralensis, or Shao Yao Kan Tsao Tang (SK Tang) (0.01-10 μg/mL) for 8 h. Next, doxycycline (10 μg/mL, BD) and oxaliplatin (5 μM, Sigma) were added for 6 days. Cells were then stained with Hoechst 33342 (0.1 μg/mL, Sigma-Aldrich). Aggregation was then analyzed by high-content analysis (HCA) system (ImageXpressMICRO, Molecular Devices). The histone deacetylase inhibitor SAHA, known to reduce SDS-insoluble polyQ aggregates, was included for comparison.
# To normalize data, the relative aggregation level in untreated cells is set as 100%. […] Good aggregation-inhibitory potential can be seen from Paeonia lactiflora (75-78% at 1-10 μg/mL), Glycyrrhiza uralensis (73-85% at 0.01-1 μg/mL), and SK Tang (79-84% at 0.01-10 μg/mL). […]
# [2] = system: IL-1β; assay: IL-1β secretion in LPS-stimulated RAW 264.7 macrophages (ELISA); type: cell-based, Mouse; details: 50 μM, 8 h pre-treatment, LPS 1 μg/mL 20 h
# Method: as §1
# (§2) The anti-inflammatory activity of SK Tang was examined using LPS-stimulated RAW 264.7 macrophage and BV-2 microglia. RAW 264.7 cells (10^6) were cultured in 6-well plates for 20 h and pre-treated with celecoxib, which is a nonsteroidal anti-inflammatory drug (named as Cele. in FIGS. 4A-4D) (50 μM) or SK Tang (0.5-2 mg/mL) for 8 h. Next, cells were stimulated by LPS (1 μg/mL) for 20 h. LPS-induced secretions of NO, TNF-α, IL-1β, and IL-6 in RAW 264.7 cells were then determined using Griess reagent or ELISA assay.
# (§3) To normalize data, the relative NO/TNF-α/IL-1β/IL-6 level in LPS-stimulated cells is set as 100%. As shown in FIGS. 4A-4D, the exposure of RAW 264.7 cells to LPS results in significant secretions of NO, TNF-α, IL-1β, and IL-6 after 24 h incubation (1-12% vs. 100%, P<0.001). […]
# [3] = system: NO; assay: NO secretion in LPS-stimulated RAW 264.7 macrophages (Griess reagent); type: cell-based, Mouse; details: 50 μM, 8 h pre-treatment, LPS 1 μg/mL 20 h
# Method: as §1, §2, §3
# [4] = system: IL-6; assay: IL-6 secretion in LPS-stimulated RAW 264.7 macrophages (ELISA); type: cell-based, Mouse; details: 50 μM, 8 h pre-treatment, LPS 1 μg/mL 20 h
# Method: as §1, §2, §3
# [5] = system: TNF-α; assay: TNF-α secretion in LPS-stimulated RAW 264.7 macrophages (ELISA); type: cell-based, Mouse; details: 50 μM, 8 h pre-treatment, LPS 1 μg/mL 20 h
# Method: as §1, §2, §3
SMILES,ATXN3/Q75 aggregation relative to untreated cells (100%) [1] [%],IL-1β level relative to LPS-stimulated cells (100%) [2] [%],NO level relative to LPS-stimulated cells (100%) [3] [%],IL-6 level relative to LPS-stimulated cells (100%) [4] [%],TNF-α level relative to LPS-stimulated cells (100%) [5] [%]
"O=C(CCCCCCC(=O)Nc1ccccc1)NO [SAHA, suberoylanilide hydroxamic acid]",85,–,–,–,–
Cc1ccc(-c2cc(C(F)(F)F)nn2-c2ccc(S(N)(=O)=O)cc2)cc1 [celecoxib],–,20,39,29,23
